Results reported in patent US7452865B2, “Antagonistic analogs of GH RH (2003)” (The Administrare's of the Tulane Educational Fund, priority 2004, dated 2008).
Marks after values point to notes of the source that are not given here. Square brackets hold non-standard residues; d marks the D form. Peptide text beside a SMILES is read from it. * marks the point of attachment. Phe(4-Cl) = N[C@@H](Cc1ccc(Cl)cc1)C(=O)O; hArg = N=C(N)NCCCC[C@H](N)C(=O)O; Nle = CCCC[C@H](N)C(=O)O; Abu = CC[C@H](N)C(=O)O; PhAc = O=C(Cc1ccccc1)*

Experiments:
[1] = system: GH-RH receptor isoforms on membrane fractions of human PC-3 prostate tumors; format: binding; conditions: general statement
From the text: Ligand competition assays with ^125I-labeled GH-RH antagonist JV-1-42 were used to determine the binding affinities of GH-RH analogs to the GH-RH receptor isoforms on membrane fractions of human PC-3 prostate tumors. The methods used have been described in detail (Halmos G, Schally A V, Varga J L, Plonowski A, Rekasi Z, Czompoly T, Proc Natl Acad Sci USA 97: 10555-10560, 2000; Halmos G, Schally A V, Czompoly T, Krupa M, Varga J L, Rekasi Z, J Clin Endocrinol Metab 87: 4707-4714, 2002), hereby incorporated by reference. Briefly, radioiodinated derivatives of JV-142 are prepared by the chloramine-T method. PC-3 tumors, grown as xenografts in nude mice, are used to prepare crude membranes. PC-3 membrane homogenates are incubated with [^125I]JV-142 and increasing concentrations (10^−12 to 10^−6 M) of nonradioactive antagonist peptides as competitors. The pellet is separated by centrifugation and counted for radioactivity in a gamma-counter. The final binding affinities are estimated by K1 (dissociation constant of the inhibitor-receptor complex) and are determined by the Ligand PC and McPherson computer programs of Munson and Rodbard (P. J. Munson and D. Rodbard, Anal. Biochem. […]: 220-239, 1980). Relative affinities (R.A.) compared to reference peptides such as JV-1-36 or JV-1-38, are calculated as the ratio of K1 of the reference peptide to the K, of the tested GH-RH antagonist.

[2] = system: PC-3 human prostate cancer xenografts; assay: PC-3 xenografts in nude mice, Experiment 2: tumor growth; format: in vivo; conditions: for Tumor volume (mm^3) Initial: 5 μg/day groups, at start of treatment; for Tumor volume (mm^3) Final / Tumor volume doubling time / Tumor weight / Tumor volume Final (% inhibition) / Tumor weight (% inhibition): 5 μg/day s.c., 28 days; for Tumor volume Final (% inhibition) / Tumor weight (% inhibition): vs control
Protocol: (§1) Male nude mice were implanted s.c. with 3 mm^3 pieces of PC-3 human hormone-independent prostate cancer tissue on both flanks. When tumors reached a volume of approx. 50 mm^3, the mice were divided into 5 experimental groups with 7 to 8 animals in each group and received single daily injections for 28 days as follows: 1. Control (vehicle solution); 2. JV-1-38 (10 μg/day s.c.); 3 Peptide 31 (10 μg/day s.c.); 4. Peptide 67 (10 μg/day s.c.); 5. Peptide 62 (10 μg/day s.c.). Tumor volumes were measured twice a week. The experiment was ended on day 29 by sacrificing the mice under Isoflurane anesthesia. Resulting tumors were cleaned, weighed, and snap-frozen until further analyses. Trunk blood was collected from the abdominal aorta and serum was separated for RIA measurement of IGF-I. Statistical analyses of the measurement results were done by two-tailed t-test; data are presented as the means±S.E.
(§2) Experiment 2 was similar to Experiment 1, with the difference that Experiment 2 was started when PC-3 tumors had grown to approximately 30 mm^3 in volume. At this time, the animals were divided into 8 experimental groups with 8 animals in each group, and received single daily injections for 28 days as follows. 1. Control (vehicle solution); 2. JV-1-38 (10 μg/day s.c.); 3. Peptide 46 (5 μg/day: s.c.); 4. Peptide 77 (5 μg/day s.c); 5. Peptide 76 (5 μg/day s.c.); 6. Peptide 70 (5 μg/day s.c.); 7 Peptide 79 (5 μg/day s.c.); 8. Peptide 80 (5 μg/day s.c.). Further details of Experiment 2 are the same as for Experiment 1.

[3] = system: IGF-I; assay: PC-3 xenografts, Experiment 2: serum IGF-I (RIA); format: in vivo, nude mice; conditions: 5 μg/day s.c., 28 days; for Serum IGF-I (% inhibition): vs control
From the text: For the measurement of GH and IGF-I levels in the serum, as well as IGF-I and IGF-II concentrations in the cytosol fraction of tumors, blood samples and tumor samples were collected and processed as described (Braczkowski R, Schally A V, Plonowski A, Varga J L, Groot K, Krupa M, Armatis P, Cancer 95: 1735-1745, 2002), hereby incorporated by reference. Briefly, blood samples are centrifuged to separate the serum, tumors are homogenized and centrifuged to separate the cytosol fraction. Serum GH is then measured by the double-antibody RIA method. Before measurement by RIA, IGF-I and IGF-II are extracted from serum and cytosol fractions using an acid-ethanol cryoprecipitation method that eliminates most of the IGF binding proteins, which can interfere with the RIA. IGF-I concentration is measured by RIA using IGF-I as a standard and goat anti-IGF-I antibody (both from DSL Inc., Webster, Tex.). IGF-II concentration is measured by RIA using human recombinant IGF-II (Bachem) as a standard and anti-IGF-II monoclonal antibody (Amano International Enzyme, Troy, Va.).
as §1, §2

[4] = system: hGH-RH(1-29)NH2 induced GH release; assay: Inhibition of GH release in superfused rat pituitary system; format: cell-based; conditions: for GH response (% of control) 0 min / GH response (% of control) 30 min / GH response (% of control) 60 min / GH response (% of control) 90 min / GH response (% of control) 120 min: antagonist 30 nM; for GH response (% of control) 0 min: 1 nM hGH-RH(1-29)NH2 at 0 min; for GH response (% of control) 30 min: 1 nM hGH-RH(1-29)NH2 at 30 min; for GH response (% of control) 60 min: 1 nM hGH-RH(1-29)NH2 at 60 min; for GH response (% of control) 90 min: 1 nM hGH-RH(1-29)NH2 at 90 min; for GH response (% of control) 120 min: 1 nM hGH-RH(1-29)NH2 at 120 min
How it was run: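 Dispersed rat pituitary cells in superfusion were preincubated 9 min with analog at various concentrations, then stimulated with 1 nM hGH-RH(1-29)NH2 for 3 min, repeated at 30, 60, 90, 120 min to gauge duration. GH measured by double-antibody RIA; net integrated responses expressed as percent of the initial 1 nM GH-RH response.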

[5] = system: PC-3 human prostate cancer xenografts; assay: PC-3 xenografts in nude mice, Experiment 3: tumor growth; format: in vivo; conditions: for Tumor volume (mm^3) Final / Tumor volume doubling time / Tumor weight / Tumor volume Final (% inhibition) / Tumor weight (% inhibition): 10 μg/day s.c., 28 days; for Tumor volume Final (% inhibition) / Tumor weight (% inhibition): vs control; for Tumor volume (mm^3) Initial: at start of treatment
Protocol: Male nude mice were implanted s.c. with 3 mm^3 pieces of PC-3 human hormone-independent prostate cancer tissue on both flanks. When tumors reached a volume of approximately 65 mm^3, the mice were divided into 7 experimental groups with 8 to 9 animals in each group and received single daily injections for 28 days as follows: 1. Control (vehicle solution); 2. JV-1-38 (10 μg/day s.c.); 3. Peptide 35 (10 μg/day s.c.); 4. Peptide 36 (10 μg/day s.c.); 5. Peptide 37 (10 μd/day s.c.); 6. Peptide 39 (10 μg/day s.c.); 7. Peptide 41 (10 μg/day s.c.). Tumor volumes were measured twice a week. The experiment was ended on day 28 by sacrificing the mice under Isofurane anesthesia. Resulting tumors were cleaned, weighed, and snapfrozen until further analyses. Trunk blood was collected from the abdominal aorta and serum was separated for RIA measurement of IGF-I. Statistical analyses of the measurement results were done by ANOVA followed by Fisher test; data are presented as the means±S.E.

## [HOOC(CH2)12CO-Tyr^1, D-Arg^2, Phe(pCl)^6, Cit^8, Amp^9, Tyr(Me)^10, His^11, Abu^15, Nle^27, D-Arg^28, Har^29]hGH-RH(1-29)NH2 [Peptide 77]
[1]
  binding affinities to the tumoral receptors for GH-RH (in words): extremely high binding affinities
[2]
  Tumor volume (mm^3) Initial: 27.2 ± 3.2 mm^3
  Tumor volume (mm^3) Final: 192 ± 44.1 mm^3
  Tumor volume doubling time: 10.7 ± 0.8 days
  Tumor weight: 138 ± 34.3 mg
  Tumor volume Final (% inhibition): (45%)
  Tumor weight (% inhibition): (51%)
[3]
  Serum IGF-I: 276 ± 16.8 ng/mL
  Serum IGF-I (% inhibition): 0%

## [CH3(CH2)6CO-Tyr^1, D-Arg^2, Phe(pCl)^6, Cit^8, His^9, Tyr(Et)^10, His^11, Abu^15, Nle^27, D-Arg^28, Har^29]hGH-RH(1-29)NH2 [Peptide 79]
[1]
  binding affinities to the tumoral receptors for GH-RH (in words): extremely high binding affinities
[2]
  Tumor volume (mm^3) Initial: 29.1 ± 4.3 mm^3
  Tumor volume (mm^3) Final: 139 ± 49.4*# mm^3
  Tumor volume doubling time: 13.6 ± 1.8 days
  Tumor weight: 153 ± 54.5 mg
  Tumor volume Final (% inhibition): (60%)
  Tumor weight (% inhibition): (46%)
[3]
  Serum IGF-I: 181 ± 19.8 ng/mL
  Serum IGF-I (% inhibition): 31%

## [PhAc-Tyr^1, D-Arg^2, Phe(pCl)^6, Har^9, 2-Nal^10, Abu^15, Nle^27, D-Arg^28, Har^29]hGH-RH(1-29)NH2 [Peptide 35]
[4]
  GH response (% of control) 0 min: 91 % of control
  GH response (% of control) 30 min: 57 % of control
  GH response (% of control) 60 min: 80 % of control
  GH response (% of control) 90 min: 66 % of control
  GH response (% of control) 120 min: 72 % of control
[1]
  binding affinities to the tumoral receptors for GH-RH (in words): extremely high binding affinities
[5]; 10 μg/day
  antitumor effect on PC-3 tumors (in words): more potent antitumor effect than reference peptide JV-1-38
[5]
  Tumor volume (mm^3) Final: 261 ± 52.9** mm^3
  Tumor volume doubling time: 17.0 ± 2.32 days
  Tumor weight: 286 ± 58.9 mg
  Tumor volume Final (% inhibition): (68%)
  Tumor weight (% inhibition): (59%)
  Tumor volume (mm^3) Initial: 65.7 ± 11.3 mm^3

## [PhAc-Tyr^1, D-Arg^2, Phe(pCl)^6, Har^9, Tyr(Me)^10, Abu^15, Nle^27, D-Arg^28, Har^29]hGH-RH(1-29)NHEt [Peptide 46]
[4]
  GH response (% of control) 0 min: 91 % of control
  GH response (% of control) 30 min: 28 % of control
  GH response (% of control) 60 min: 31 % of control
  GH response (% of control) 90 min: 56 % of control
  GH response (% of control) 120 min: 30 % of control
[2]
  Tumor volume (mm^3) Initial: 26.6 ± 2.7 mm^3
  Tumor volume (mm^3) Final: 246 ± 93.7 mm^3
  Tumor volume doubling time: 11.2 ± 1.3 days
  Tumor weight: 188 ± 66.1 mg
  Tumor volume Final (% inhibition): (30%)
  Tumor weight (% inhibition): (34%)
[3]
  Serum IGF-I: 288 ± 17.9 ng/mL
  Serum IGF-I (% inhibition): 0%

## [CH3(CH2)6CO-Tyr^1, D-Arg^2, Phe(pCl)^6, Amp^9, Tyr(Me)^10, Abu^15, Nle^27, D-Arg^28, Har^29]hGH-RH(1-29)NH2 [Peptide 70]
[1]
  binding affinities to the tumoral receptors for GH-RH (in words): extremely high binding affinities
[2]
  Tumor volume (mm^3) Initial: 26.5 ± 3.7 mm^3
  Tumor volume (mm^3) Final: 199 ± 40.4*# mm^3
  Tumor volume doubling time: 12.6 ± 2.5 days
  Tumor weight: 119 ± 25.3 mg
  Tumor volume Final (% inhibition): (43%)
  Tumor weight (% inhibition): (58%)
[3]
  Serum IGF-I: 175 ± 12.9 ng/mL
  Serum IGF-I (% inhibition): 33%

## CCCC[C@H](NC(=O)[C@@H](NC(=O)[C@H](CC(=O)O)NC(=O)[C@H](CCC(N)=O)NC(=O)[C@H](CC(C)C)NC(=O)[C@H](CC(C)C)NC(=O)[C@H](CCCCN)NC(=O)[C@H](CCCNC(=N)N)NC(=O)[C@H](C)NC(=O)[C@H](CO)NC(=O)[C@H](CC(C)C)NC(=O)[C@H](CCC(N)=O)NC(=O)[C@H](CC)NC(=O)[C@H](CC(C)C)NC(=O)[C@@H](NC(=O)[C@H](CCCCN)NC(=O)[C@H](CCCNC(=N)N)NC(=O)[C@H](Cc1ccc(OCC)cc1)NC(=O)[C@H](CCCCNC(=N)N)NC(=O)[C@H](CC(N)=O)NC(=O)[C@@H](NC(=O)[C@H](Cc1ccc(Cl)cc1)NC(=O)[C@@H](NC(=O)[C@H](C)NC(=O)[C@H](CC(=O)O)NC(=O)[C@@H](CCCNC(=N)N)NC(=O)[C@H](Cc1ccc(O)cc1)NC(=O)Cc1ccccc1)[C@@H](C)CC)[C@@H](C)O)C(C)C)[C@@H](C)CC)C(=O)N[C@H](CCCNC(=N)N)C(=O)N[C@@H](CCCCNC(=N)N)C(N)=O [Peptide 41, [PhAc-Tyr^1, D-Arg^2, Phe(pCl)^6, Har^9, Tyr(Et)^10, Abu^15, Nle^27, D-Arg^28, Har^29]hGH-RH(1-29)NH2] (PhAc-Y[dR]DAI[Phe(4-Cl)]TN[hArg]Y(Et)RKVL[Abu]QLSARKLLQDI[Nle][dR][hArg]-NH2)
[4]
  GH response (% of control) 0 min: 47 % of control
  GH response (% of control) 30 min: 16 % of control
  GH response (% of control) 60 min: 14 % of control
  GH response (% of control) 90 min: 15 % of control
  GH response (% of control) 120 min: 16 % of control
[4]; general statement, in vitro and in vivo
  endocrine antagonistic potency: inhibition of the GH release stimulated by hGH-RH(1-29)NH2 (in words): high endocrine antagonistic potencies
[1]
  binding affinities to the tumoral receptors for GH-RH (in words): extremely high binding affinities
[5]
  Tumor volume (mm^3) Final: 341 ± 107* mm^3
  Tumor volume doubling time: 28.2 ± 9.85 days
  Tumor weight: 579 ± 188 mg
  Tumor volume Final (% inhibition): (54%)
  Tumor weight (% inhibition): (17%)
  Tumor volume (mm^3) Initial: 66.7 ± 12.5 mm^3
